# Results as given in US20080214399A1, “Enhanced amino acid formulations” (priority 2006, published 2008).
# Tested on: cotton cotyledons
# Experiment: Cotton cotyledon bioassay: reduction of CPPU-induced ethylene production
# Type: in vivo, cotton (variety SG 105)
# Conditions: CPPU (200 μM) alone, reference = 1.00
# Experimental: A cotton bioassay system has been used in the laboratory to study the effect of formulations on AVG performance. […] One spray application of CPPU (forchlorfenuron) is made to the bottom (abaxial) and AVG was subsequently applied to the top (adaxial) surface of the cotyledons. […] Water was used as the carrier. Further dilutions were prepared as needed for foliar applications. All the data was subject to an analysis of variance, and the mean separations were determined with Duncan's new multiple range test at α=0.05. The present invention may be illustrated by the following representative examples: […]
smiles,measurement,value
"O=C(Nc1ccccc1)Nc1ccnc(Cl)c1 [CPPU, forchlorfenuron]",Reduction as compared to CPPU-treated,1.00
